This note sets out measurements from ChEMBL document CHEMBL1155100, “Design and synthesis of novel 3-hydroxy-cyclobut-3-ene-1,2-dione derivatives as thyroid hormone receptor beta (TR-beta) selective ligands” (Bioorg Med Chem Lett, 2008).

Molecules are shown by their SMILES.

Experiment [1] concerns the target T1, Thyroid hormone receptor alpha (Homo sapiens, UniProt P10827).
T1 sequence (P10827 whole entry): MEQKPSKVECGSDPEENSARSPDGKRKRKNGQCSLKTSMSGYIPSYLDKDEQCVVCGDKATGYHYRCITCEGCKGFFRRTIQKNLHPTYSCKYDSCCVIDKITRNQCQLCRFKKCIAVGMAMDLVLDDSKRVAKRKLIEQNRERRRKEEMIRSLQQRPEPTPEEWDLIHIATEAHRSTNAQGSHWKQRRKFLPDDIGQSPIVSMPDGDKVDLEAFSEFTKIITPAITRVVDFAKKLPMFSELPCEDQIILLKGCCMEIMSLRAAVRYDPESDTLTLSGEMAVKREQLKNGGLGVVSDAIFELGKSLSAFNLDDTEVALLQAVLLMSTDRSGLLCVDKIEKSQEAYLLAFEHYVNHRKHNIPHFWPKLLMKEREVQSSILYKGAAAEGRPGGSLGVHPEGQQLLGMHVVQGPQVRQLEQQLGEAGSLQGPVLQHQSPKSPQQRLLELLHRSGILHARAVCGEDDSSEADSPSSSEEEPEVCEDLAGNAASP
Nature of the experiment: Agonist activity at human thyroid hormone receptor alpha expressed in CV1 cells by TRE-luciferase assay. It is filed as functional, cell-based, CV-1.

The target of experiment [2] is T2, Thyroid hormone receptor beta (Homo sapiens, UniProt P10828).
T2 sequence (P10828 whole entry): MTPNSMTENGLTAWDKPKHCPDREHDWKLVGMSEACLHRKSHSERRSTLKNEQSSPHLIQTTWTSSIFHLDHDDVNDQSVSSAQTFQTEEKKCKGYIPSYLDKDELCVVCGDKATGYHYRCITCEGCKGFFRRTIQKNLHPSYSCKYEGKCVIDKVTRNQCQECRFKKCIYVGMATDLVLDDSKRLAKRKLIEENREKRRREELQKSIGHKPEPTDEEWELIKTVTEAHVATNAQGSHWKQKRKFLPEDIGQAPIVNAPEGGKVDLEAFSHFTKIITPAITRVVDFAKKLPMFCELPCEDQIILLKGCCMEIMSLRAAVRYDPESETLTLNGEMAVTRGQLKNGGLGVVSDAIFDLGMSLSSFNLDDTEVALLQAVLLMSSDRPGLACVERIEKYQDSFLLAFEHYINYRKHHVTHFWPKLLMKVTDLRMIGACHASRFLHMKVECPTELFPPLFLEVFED

Consider `CC(C)c1cc(Oc2c(Cl)cc(Nc3c(O)c(=O)c3=O)cc2Cl)ccc1O`, for which the EC50 was 222 nM in experiment [1] and 70 nM in experiment [2].
As to `CC(C)(C)c1cc(Oc2c(Cl)cc(Nc3c(O)c(=O)c3=O)cc2Cl)ccc1O`, the figures for the EC50 in experiment [1] and in experiment [2] were 1060 nM and 317 nM, respectively.

In general, EC50 refers to the concentration giving half of the maximal effect.
